Series [1] deals with M. smegmatis DprE1 (DprE1/DprE2 epimerase) (Mycolicibacterium smegmatis, UniProt A0R607). Format: biochemical.
Series [2] concerns Mtb. Kind of series: microbe, parasite or virus in culture. Format: cell-based, Mycobacterium tuberculosis. The settings on record: for MIC: Mycobacterium tuberculosis, read-out: MIC (I).
Series [3] concerns Mtb. Description: microbe, parasite or virus in culture. The settings on record: for MIC: Mycobacterium tuberculosis, read-out: MIC (III). Format: cell-based, Mycobacterium tuberculosis.
The test system of series [4] is Mtb. Description: microbe, parasite or virus in culture. Conditions: Mycobacterium tuberculosis, read-out: MIC (II). Format: cell-based, Mycobacterium tuberculosis.
The nature of series [5]: in vitro. Conditions: human.
Series [6] in a line: in vitro. The settings on record: African green monkey.
The subject of series [7] is Vero cells.
Series [8] concerns exponentially growing virulent Mtb. It is filed as cell-based, Mycobacterium tuberculosis.
Series [9] deals with Mtb in J744.1 murine macrophage cells. Kind of series: microbe, parasite or virus in culture. It is filed as cell-based. The settings on record: Mycobacterium tuberculosis, 120 h, read-out: MIC50, intracellular CFU assay.

Values after ≈ are worked out from the molar mass of the structure shown. Like-named read-outs stand apart in the source and are kept apart here. Where only a bound is given, the exact number is not on record here.

Sequence of M. smegmatis DprE1 (DprE1/DprE2 epimerase) (A0R607 whole entry): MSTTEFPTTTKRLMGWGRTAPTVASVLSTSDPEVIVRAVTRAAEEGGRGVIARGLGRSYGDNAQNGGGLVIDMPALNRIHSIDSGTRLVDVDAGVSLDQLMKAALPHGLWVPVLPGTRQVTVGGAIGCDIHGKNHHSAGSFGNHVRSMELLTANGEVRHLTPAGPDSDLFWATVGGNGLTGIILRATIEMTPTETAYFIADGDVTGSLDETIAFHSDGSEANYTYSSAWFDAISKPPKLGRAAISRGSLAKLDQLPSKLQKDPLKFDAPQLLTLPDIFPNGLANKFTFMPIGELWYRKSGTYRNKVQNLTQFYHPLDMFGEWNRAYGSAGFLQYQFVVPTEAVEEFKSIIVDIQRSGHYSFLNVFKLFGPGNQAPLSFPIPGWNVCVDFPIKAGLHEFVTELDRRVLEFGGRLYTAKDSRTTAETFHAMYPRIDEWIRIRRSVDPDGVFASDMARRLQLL

For `C[C@H]1COC2(CCN(c3nc(=O)c4cc(C(F)(F)F)cc([N+](=O)[O-])c4s3)CC2)O1` [BTZ043], the “inhibition of conversion of DPR to DPA by DprE1” value in series [1] was “potently inhibit”.
As for `CCOC(=O)NC(=O)c1ccsc1NC(=O)c1nc2ccccc2s1` [Compound 1], the figures for the MIC in series [2], in [3] and in series [4] were 1 to 3 µg/mL (≈ 2.66 to 7.99 µM), > 25 µg/mL and 1 to 3 µg/mL (≈ 2.66 to 7.99 µM), respectively. The CC50 in series [5] and in series [6] was > 50 µg/mL each time.
On to `CCOC(=O)NC(=O)c1ccsc1NC(=O)c1cccc(NC(C)=O)c1` [Compound 3], for which the MIC in series [4] was in the range of 1 to 3 µg/mL (≈ 2.66 to 7.99 µM). Moreover, the CC50 in series [5] is > 50 µg/mL.
Taken in the same sequence, the figures for `CCOC(=O)NC(=O)c1ccsc1NC(=O)c1ccnc(NC(=O)OC(C)C)c1` [Compound 4] were 1 to 3 µg/mL (≈ 2.38 to 7.14 µM) and > 50 µg/mL.
Take `CCOC(=O)NC(=O)c1ccsc1NC(=O)c1ccc2sc(C)nc2c1` [Compound 10]: the MIC in series [2] and in [4] was < 1 µg/mL in each case. For the same molecule, the figures for the CC50 in series [5] and in series [6] were > 50 µg/mL and 25 to 50 µg/mL (≈ 64.2 to 128 µM), respectively.
Turning to `CCOC(=O)NC(=O)c1ccsc1NC(=O)c1cc2ccccn2n1` [Compound 11], the MIC in series [4] is 1 to 3 µg/mL (≈ 2.79 to 8.37 µM). Besides, in [5], the CC50 is > 50 µg/mL.
In the same order, the values of `CCOC(=O)NC(=O)c1ccsc1NC(=O)c1ccnc(-n2cnnn2)c1` [Compound 12] are 1 to 3 µg/mL (≈ 2.58 to 7.74 µM) and > 50 µg/mL.
In the same order, the values of `CCOC(=O)NC(=O)c1ccsc1NC(=O)c1ccnc(NC(C)=O)c1` [Compound 13] are < 1 µg/mL and > 50 µg/mL.
Regarding `CCOC(=O)NC(=O)c1ccsc1NC(=O)c1nc2cc(Cl)ccc2s1` [Compound 52], in series [4], the MIC was < 1 µg/mL. The CC50 in series [5] was > 50 µg/mL.
Regarding `CCOC(=O)NC(=O)c1ccsc1NC(=O)c1nc2cc(F)ccc2s1` [Compound 53], the MIC in [2] and in [4] was < 1 µg/mL in each case. For the same molecule, the results for the CC50 in [5] and in [6] were 25 to 50 µg/mL (≈ 63.5 to 127 µM) and < 25 µg/mL, respectively.
With `CCOC(=O)NC(=O)c1ccsc1NC(=O)c1ccnc(NC(=O)C(C)(C)C)c1` [Compound 60], the MIC in series [2] is < 1 µg/mL; in series [3], > 25 µg/mL; in series [4], < 1 µg/mL. The CC50 in series [5] and in [6] was > 50 µg/mL throughout.
On to `CCOC(=O)NC(=O)c1ccsc1NC(=O)c1ccnc(NC(=O)OC)c1` [Compound 61], for which the MIC in [2] was 1 to 3 µg/mL (≈ 2.55 to 7.65 µM); in [3], 5 to 25 µg/mL (≈ 12.7 to 63.7 µM); in series [4], < 1 µg/mL. Further, the CC50 is 25 to 50 µg/mL (≈ 63.7 to 127 µM) in series [5] and > 50 µg/mL in series [6].
Taken in the same sequence, the figures for `CCOC(=O)NC(=O)c1ccsc1NC(=O)c1nc2ccc(Cl)cc2[nH]1` [Compound 72] were 1 to 3 µg/mL (≈ 2.55 to 7.64 µM), 5 to 25 µg/mL (≈ 12.7 to 63.6 µM), > 3 µg/mL, > 50 µg/mL and > 50 µg/mL.
In the same order, the values of `CCOC(=O)NC(=O)c1ccsc1NC(=O)c1cn2ccccc2n1` [Compound 76] are 1 to 3 µg/mL (≈ 2.79 to 8.37 µM), < 5 µg/mL, > 3 µg/mL, > 50 µg/mL and > 50 µg/mL.
As for `O=C(Nc1sccc1C(=O)N1CCN(C2CC2)CC1)c1nc2ccccc2s1` [Compound 256], in [2], the “MIC (I)” value is “C (key: A: <1 μg/mL; B: 1-3 μg/mL; C: >3 μg/mL)”. In series [3], the “MIC (III)” value was “B (key: A: <5 μg/mL; B: 5-25 μg/mL; C: >25 μg/mL)”. In [7], the “LC50 (IV)” value was “C (key: A: >50 μg/mL; B: 50-25 μg/mL; C: <25 μg/mL)”.
In the same order, the values of `O=C(Nc1sccc1C(=O)N1CCSCC1)c1nc2ccccc2s1` [Compound 261] are “C (key: A: <1 μg/mL; B: 1-3 μg/mL; C: >3 μg/mL)”, “C (key: A: <5 μg/mL; B: 5-25 μg/mL; C: >25 μg/mL)” and “A (key: A: >50 μg/mL; B: 50-25 μg/mL; C: <25 μg/mL)”.
In the same order, the values of `O=C(NC(=O)c1ccsc1NC(=O)c1nc2cnccc2s1)OC(c1ccccc1)C(F)(F)F` (stereo not shown) [Compound 304] are “B (key: A: <1 μg/mL; B: 1-3 μg/mL; C: >3 μg/mL)”, “C (key: A: <5 μg/mL; B: 5-25 μg/mL; C: >25 μg/mL)” and “B (key: A: >50 μg/mL; B: 50-25 μg/mL; C: <25 μg/mL)”.
In the case of `O=C(NC(=O)c1ccsc1NC(=O)c1cn2ccccc2n1)OC1CCCC1` [Compound 348], the “MIC (I)” value in series [2] is recorded as “C (key: A: <1 μg/mL; B: 1-3 μg/mL; C: >3 μg/mL)”. Besides, in [3], the “MIC (III)” value is given as “C (key: A: <5 μg/mL; B: 5-25 μg/mL; C: >25 μg/mL)”. The “LC50 (IV)” value in series [7] is listed as “B (key: A: >50 μg/mL; B: 50-25 μg/mL; C: <25 μg/mL)”.
Regarding `CCOC(=O)NC(=O)c1ccsc1NC(=O)c1ccc2[nH]ncc2c1` [Compound 350], in series [2], the “MIC (I)” value is listed as “C (key: A: <1 μg/mL; B: 1-3 μg/mL; C: >3 μg/mL)”. Moreover, the “MIC (III)” value in [3] is listed as “C (key: A: <5 μg/mL; B: 5-25 μg/mL; C: >25 μg/mL)”. The “LC50 (IV)” value in series [7] is recorded as “B (key: A: >50 μg/mL; B: 50-25 μg/mL; C: <25 μg/mL)”.
Taken in the same sequence, the figures for `CC(C)OC(=O)NC(=O)c1ccsc1NC(=O)c1ccc2[nH]ncc2c1` [Compound 351] were “C (key: A: <1 μg/mL; B: 1-3 μg/mL; C: >3 μg/mL)”, “C (key: A: <5 μg/mL; B: 5-25 μg/mL; C: >25 μg/mL)” and “B (key: A: >50 μg/mL; B: 50-25 μg/mL; C: <25 μg/mL)”.
Taken in the same sequence, the figures for `CCOC(=O)NC(=O)c1ccsc1NC(=O)c1cnc2cc[nH]c2c1` [Compound 355] were “C (key: A: <1 μg/mL; B: 1-3 μg/mL; C: >3 μg/mL)”, “C (key: A: <5 μg/mL; B: 5-25 μg/mL; C: >25 μg/mL)” and “B (key: A: >50 μg/mL; B: 50-25 μg/mL; C: <25 μg/mL)”.
`CCOC(=O)NC(=O)c1ccsc1NC(=O)c1n[nH]c2ncccc12` [Compound 358]: the “MIC (I)” value in series [2] is “C (key: A: <1 μg/mL; B: 1-3 μg/mL; C: >3 μg/mL)”. The “MIC (III)” value in series [3] was “C (key: A: <5 μg/mL; B: 5-25 μg/mL; C: >25 μg/mL)”. In addition, in [7], the “LC50 (IV)” value is “B (key: A: >50 μg/mL; B: 50-25 μg/mL; C: <25 μg/mL)”.
Take `CC(C)OC(=O)NC(=O)c1ccsc1NC(=O)c1n[nH]c2ncccc12` [Compound 359]: in series [2], the “MIC (I)” value is “C (key: A: <1 μg/mL; B: 1-3 μg/mL; C: >3 μg/mL)”. Besides, in series [3], the “MIC (III)” value is “C (key: A: <5 μg/mL; B: 5-25 μg/mL; C: >25 μg/mL)”. The “LC50 (IV)” value in [7] is “B (key: A: >50 μg/mL; B: 50-25 μg/mL; C: <25 μg/mL)”.
In the same order, the values of `CCOC(=O)NC(=O)c1ccsc1NC(=O)c1ccc2[nH]nnc2c1` [Compound 363] are “C (key: A: <1 μg/mL; B: 1-3 μg/mL; C: >3 μg/mL)”, “C (key: A: <5 μg/mL; B: 5-25 μg/mL; C: >25 μg/mL)” and “B (key: A: >50 μg/mL; B: 50-25 μg/mL; C: <25 μg/mL)”.
Taken in the same sequence, the figures for `CC(C)OC(=O)NC(=O)c1ccsc1NC(=O)c1ccc2[nH]nnc2c1` [Compound 364] were “B (key: A: <1 μg/mL; B: 1-3 μg/mL; C: >3 μg/mL)”, “C (key: A: <5 μg/mL; B: 5-25 μg/mL; C: >25 μg/mL)” and “B (key: A: >50 μg/mL; B: 50-25 μg/mL; C: <25 μg/mL)”.
Taken in the same sequence, the figures for `O=C(Nc1sccc1C(=O)NC(=O)N1CCOCC1)c1nc2ccccc2s1` [Compound 385] were “C (key: A: <1 μg/mL; B: 1-3 μg/mL; C: >3 μg/mL)”, “C (key: A: <5 μg/mL; B: 5-25 μg/mL; C: >25 μg/mL)” and “C (key: A: >50 μg/mL; B: 50-25 μg/mL; C: <25 μg/mL)”.
Consider `CCOC(=O)NC(=O)c1ccsc1NC(=O)c1nc2ccc(NC(=O)CNC(=O)OC(C)(C)C)cc2s1` [Compound 392], for which the “MIC (I)” value in [2] is reported as “B (key: A: <1 μg/mL; B: 1-3 μg/mL; C: >3 μg/mL)”. Also, in series [3], the “MIC (III)” value is listed as “C (key: A: <5 μg/mL; B: 5-25 μg/mL; C: >25 μg/mL)”. The “LC50 (IV)” value in series [7] is “B (key: A: >50 μg/mL; B: 50-25 μg/mL; C: <25 μg/mL)”.
As to `NNC(=O)c1ccncc1` [INH, isoniazid], the “drop in CFU compared with TCA1” value in series [8] is given as “comparable drop in CFU over the first seven days”. Further, in series [9], the MIC50 stood at 0.2 µg/mL (≈ 1.46 µM).
`CO[C@H]1/C=C/O[C@@]2(C)Oc3c(C)c(O)c4c(O)c(c(/C=N/N5CCN(C)CC5)c(O)c4c3C2=O)NC(=O)/C(C)=C\C=C\[C@H](C)[C@H](O)[C@@H](C)[C@@H](O)[C@@H](C)[C@H](OC(C)=O)[C@@H]1C` [RIF, rifampicin]: the MIC50 in [9] came out at 2.7 µg/mL (≈ 3.28 µM).
